In this test the test system is Plasmodium berghei. As to the kind of experiment: Luciferase/luciferin-expressing antifolate-resistant parasites were used to infect a culture of HepG2 cells that were pre-incubated with compounds. Infected hepatocytes emit light due to the luciferase reaction. Assay results are presented as the percent inhibition of light emission compared to control. […]. The test is classed as functional. To be noted: sporozoite; for IC90: read-out: LUCIFERASE INFECTION ASSAY - IC90.

The structures appear in SMILES notation.

For `Cc1cc(C)cc(NC(=O)CCN2c3ccccc3Sc3ccccc32)c1`, the IC90 is greater than 10 µM. Also, the IC50 (FFLUC_HILL_SLOPE 15.9, FFLUC_R_SQUARED 0.234, read-out: LUCIFERASE INFECTION ASSAY - IC50) was greater than 10 µM.

With `Cc1ccc(C(=O)Cn2c(=O)n(C3CCCCC3)c(=O)c3ccccc32)cc1`, the IC90 is greater than 8.77 µM. The IC50 (FFLUC_HILL_SLOPE 15.7, FFLUC_R_SQUARED 0.382, PBLUC_HILL_SLOPE 31.1, PBLUC_R_SQUARED 0.0716, read-out: LUCIFERASE INFECTION ASSAY - IC50) was greater than 8.77 µM.

Consider `O=C(NC(=O)c1csnn1)Nc1cc(C(F)(F)F)cc(C(F)(F)F)c1`, for which the 90% effect concentration (IC90) was found to be 2.08 µM. In addition, where the note is “FFLUC_HILL_SLOPE 15.9, FFLUC_R_SQUARED 0.485, HEPG2TOX_HILL_SLOPE 1.3, HEPG2TOX_R_SQUARED 0.92, PBLUC_HILL_SLOPE 2.07, PBLUC_R_SQUARED 0.679, read-out: LUCIFERASE INFECTION ASSAY - IC50”, the IC50 amounted to 0.72 µM.

As to `CN(Cc1cccc(Cl)c1Cl)C(C(=O)Nc1ccc(Cl)c(C(F)(F)F)c1)c1ccccc1` (configuration not stated), the IC90 was greater than 10 µM. Moreover, for the setting “FFLUC_HILL_SLOPE 15.8, FFLUC_R_SQUARED 0.442, HEPG2TOX_HILL_SLOPE 1.06, HEPG2TOX_R_SQUARED 0.598, PBLUC_HILL_SLOPE 0.733, PBLUC_R_SQUARED 0.344, read-out: LUCIFERASE INFECTION ASSAY - IC50”, the IC50 came to 7.46 µM.

For the compound `Clc1ccc(-c2cnc3cnc(-c4cnn(Cc5ccccc5)c4)cn23)cc1`, the concentration for an effect of 90% (IC90) came to 3.3 µM. Further, the IC50 (FFLUC_HILL_SLOPE 15.7, FFLUC_R_SQUARED 0.271, HEPG2TOX_HILL_SLOPE 2.48, HEPG2TOX_R_SQUARED 0.0283, PBLUC_HILL_SLOPE 11.5, PBLUC_R_SQUARED 0.641, read-out: LUCIFERASE INFECTION ASSAY - IC50) was found to be 2.73 µM.

With `Cc1ccc(CNC(=O)c2cc(-c3ccccc3)nn2-c2ccccc2)cc1`, the IC90 was greater than 10 µM. In addition, the IC50 (FFLUC_HILL_SLOPE 15.6, FFLUC_R_SQUARED 0.349, read-out: LUCIFERASE INFECTION ASSAY - IC50) was greater than 10 µM.

Turning to `CC(C)(C)NC(=S)N/N=C/c1ncc(C(F)(F)F)cc1Sc1ccc(Cl)cc1`, the IC90 stood at 4.33 µM. The IC50 (FFLUC_HILL_SLOPE 15.8, FFLUC_R_SQUARED 0.683, HEPG2TOX_HILL_SLOPE 2.2, HEPG2TOX_R_SQUARED 0.982, PBLUC_HILL_SLOPE 3.41, PBLUC_R_SQUARED 0.827, read-out: LUCIFERASE INFECTION ASSAY - IC50) turned out to be 2.27 µM.

For the compound `Cc1cc(C(=O)CSc2nnc(Cc3cccc4ccccc34)n2C2CCCCC2)c(C)n1CC(F)(F)F`, the IC90 is greater than 10 µM. Moreover, the IC50 (FFLUC_HILL_SLOPE 15.7, FFLUC_R_SQUARED 0.514, PBLUC_HILL_SLOPE 7.31, PBLUC_R_SQUARED 0.494, read-out: LUCIFERASE INFECTION ASSAY - IC50) came to 8.44 µM.

`O=S(=O)(Nc1ccc(C(F)(F)F)cc1)c1ccc(S(=O)(=O)c2ncc(C(F)(F)F)cc2Cl)s1`: the 90% effect concentration (IC90) is greater than 5.99 µM. In addition, under “FFLUC_HILL_SLOPE 15.7, FFLUC_R_SQUARED 0.198, HEPG2TOX_HILL_SLOPE 0.681, HEPG2TOX_R_SQUARED 0.155, read-out: LUCIFERASE INFECTION ASSAY - IC50”, the IC50 was greater than 5.99 µM.

For the compound `C#CCOc1ccccc1/C=C(\C#N)c1nc(N)nc(Nc2ccccc2)n1`, the IC90 was greater than 10 µM. Besides, the IC50 (FFLUC_HILL_SLOPE 15.9, FFLUC_R_SQUARED 0.0727, HEPG2TOX_HILL_SLOPE 1.54, HEPG2TOX_R_SQUARED 0.555, PBLUC_HILL_SLOPE 1.18, PBLUC_R_SQUARED 0.297, read-out: LUCIFERASE INFECTION ASSAY - IC50) was greater than 10 µM.

Take `CC(C)(C)c1cc(C(=O)OCC(=O)NC(c2ccccc2)c2ccccc2)cc(C(C)(C)C)c1`: the IC90 is greater than 10 µM. For the same compound, the half-inhibitory concentration (IC50) (FFLUC_HILL_SLOPE 15.9, FFLUC_R_SQUARED 0.274, HEPG2TOX_HILL_SLOPE 1.64, HEPG2TOX_R_SQUARED 0.592, PBLUC_HILL_SLOPE 2.07, PBLUC_R_SQUARED 0.325, read-out: LUCIFERASE INFECTION ASSAY - IC50) is 7.82 µM.

`CCOC(=O)/C(C)=N/Nc1ccc(OC(F)(F)F)cc1`: the IC90 is greater than 11.4 µM. Besides, the 50% inhibitory concentration (IC50) (FFLUC_HILL_SLOPE 15.6, FFLUC_R_SQUARED 0.429, HEPG2TOX_HILL_SLOPE 8.88, HEPG2TOX_R_SQUARED 0.352, PBLUC_HILL_SLOPE 1.63, PBLUC_R_SQUARED 0.496, read-out: LUCIFERASE INFECTION ASSAY - IC50) was 9.31 µM.

Consider `Cc1ccc2nc(NC(=O)c3ccc(F)c(F)c3)c(C(=O)NC3CCCC3)n2c1`, for which the IC90 was determined as 1.33 µM. In addition, the IC50 (FFLUC_HILL_SLOPE 15.6, FFLUC_R_SQUARED 0.751, HEPG2TOX_HILL_SLOPE 0.983, HEPG2TOX_R_SQUARED 0.896, PBLUC_HILL_SLOPE 4.3, PBLUC_R_SQUARED 0.744, read-out: LUCIFERASE INFECTION ASSAY - IC50) is 0.8 µM.

For the compound `CCN(CC)c1ccc(N=C2C=CC(=O)c3ccccc32)c(C)c1`, the IC90 is 4.59 µM. For the same compound, the 50% inhibitory concentration (IC50) (FFLUC_HILL_SLOPE 15.8, FFLUC_R_SQUARED 0.584, HEPG2TOX_HILL_SLOPE 2.04, HEPG2TOX_R_SQUARED 0.961, PBLUC_HILL_SLOPE 2.09, PBLUC_R_SQUARED 0.781, read-out: LUCIFERASE INFECTION ASSAY - IC50) was 1.61 µM.

Regarding `CSc1nnc(-c2ccc(C(C)(C)C)cc2)[nH]1`, the IC90 came out at 10.9 µM. The half-maximal inhibitory concentration (IC50) (FFLUC_HILL_SLOPE 15.7, FFLUC_R_SQUARED 0.752, PBLUC_HILL_SLOPE 2.05, PBLUC_R_SQUARED 0.759, read-out: LUCIFERASE INFECTION ASSAY - IC50) came out at 3.73 µM.

For `Cc1sc2ncn(CC(=O)NC(c3ccc(F)cc3)c3cccs3)c(=O)c2c1-c1ccccc1` (configuration not stated), the IC90 turned out to be 9.83 µM. Moreover, the IC50 (FFLUC_HILL_SLOPE 15.7, FFLUC_R_SQUARED 0.526, PBLUC_HILL_SLOPE 17, PBLUC_R_SQUARED 0.112, read-out: LUCIFERASE INFECTION ASSAY - IC50) was determined as 8.64 µM.

Consider `CC(C)N(C(=O)COC(=O)C1=NNC(=O)CC1)C(C)C`, for which the IC90 was greater than 10 µM. Also, the IC50 (FFLUC_HILL_SLOPE 15.7, FFLUC_R_SQUARED 0.158, read-out: LUCIFERASE INFECTION ASSAY - IC50) is greater than 10 µM.

`CCOc1ccc(/C=C/C2=Cc3c(sc(NC(=O)COC(=O)c4cccc(S(=O)(=O)N5CCc6ccccc65)c4)c3C#N)C(C)(C)C2)cc1`: the concentration for an effect of 90% (IC90) is greater than 10 µM. Also, the IC50 (FFLUC_HILL_SLOPE 15.6, FFLUC_R_SQUARED 0.606, read-out: LUCIFERASE INFECTION ASSAY - IC50) is greater than 10 µM.

`COC(=O)c1sc(N)c(C(=O)OC)c1COC(=O)/C=C/c1ccc(OC(F)F)cc1`: the IC90 was greater than 10 µM. Besides, where the note is “FFLUC_HILL_SLOPE 15.7, FFLUC_R_SQUARED 0.211, read-out: LUCIFERASE INFECTION ASSAY - IC50”, the IC50 is greater than 10 µM.

As to `COC(=O)c1ccc(-n2c(C)cc(-c3csc(NC(=O)/C=C/c4ccccc4[N+](=O)[O-])n3)c2C)cc1`, the concentration for an effect of 90% (IC90) is greater than 10 µM. Moreover, the IC50 (FFLUC_HILL_SLOPE 15.6, FFLUC_R_SQUARED 0.621, read-out: LUCIFERASE INFECTION ASSAY - IC50) was greater than 10 µM.

Regarding `Cc1cc(/C=N/Nc2ccnc3cc(Cl)ccc23)c(C)n1-c1cc(S(=O)(=O)N2CCOCC2)ccc1N1CCCC1`, the IC90 is greater than 10 µM. Moreover, the IC50 (FFLUC_HILL_SLOPE 15.8, FFLUC_R_SQUARED 0.537, PBLUC_HILL_SLOPE 3.6, PBLUC_R_SQUARED 0.465, read-out: LUCIFERASE INFECTION ASSAY - IC50) came out at 6.84 µM.

In the case of `CC(C)CCNC(=O)C(=Cc1ccc(Oc2ccc(C(C)(C)C)cc2)c([N+](=O)[O-])c1)C(=O)NCCC(C)C`, the IC90 is greater than 10 µM. For the same compound, the 50% inhibitory concentration (IC50) (FFLUC_HILL_SLOPE 15.8, FFLUC_R_SQUARED 0.198, HEPG2TOX_HILL_SLOPE 15.2, 3.81, HEPG2TOX_R_SQUARED 0.607, 0.996, PBLUC_HILL_SLOPE 2.43, PBLUC_R_SQUARED 0.694, read-out: LUCIFERASE INFECTION ASSAY - IC50) stood at 4.43 µM.

As for `Cn1nc(-c2ccccc2)c(/C=N/O)c1Sc1ccc(C(C)(C)C)cc1`, the IC90 was greater than 9.03 µM. In addition, the IC50 (FFLUC_HILL_SLOPE 15.8, FFLUC_R_SQUARED 0.096, HEPG2TOX_HILL_SLOPE 2.21, HEPG2TOX_R_SQUARED 0.952, PBLUC_HILL_SLOPE 13.8, PBLUC_R_SQUARED 0.121, read-out: LUCIFERASE INFECTION ASSAY - IC50) stood at 8.79 µM.

Turning to `Cc1ccc(-n2c(C)cc(-c3csc(NC(=O)c4cccc(S(=O)(=O)N5CCc6ccccc65)c4)n3)c2C)cc1`, the IC90 was greater than 10 µM. The IC50 (FFLUC_HILL_SLOPE 15.8, FFLUC_R_SQUARED 0.357, read-out: LUCIFERASE INFECTION ASSAY - IC50) is greater than 10 µM.

In the case of `Cc1ccc(C(=O)c2c(NC(=O)CSc3nc4ccccc4n3CC(C)C)sc3c2CCCC3)cc1`, the IC90 was greater than 10 µM. In addition, the IC50 (FFLUC_HILL_SLOPE 15.8, FFLUC_R_SQUARED 0.569, HEPG2TOX_HILL_SLOPE 0.459, HEPG2TOX_R_SQUARED 0.518, PBLUC_HILL_SLOPE 11.3, PBLUC_R_SQUARED 0.271, read-out: LUCIFERASE INFECTION ASSAY - IC50) was greater than 10 µM.

As for `COc1cc(C(=O)N/N=C2\C(=O)Nc3ccc(C(C)C)cc32)cc(OC)c1OC`, the IC90 is greater than 10 µM. Also, the IC50 (FFLUC_HILL_SLOPE 15.7, FFLUC_R_SQUARED 0.417, HEPG2TOX_HILL_SLOPE 3.31, HEPG2TOX_R_SQUARED 0.963, PBLUC_HILL_SLOPE 2.41, PBLUC_R_SQUARED 0.374, read-out: LUCIFERASE INFECTION ASSAY - IC50) worked out at 4.85 µM.

The record behind these values is ChEMBL document CHEMBL4483862, “Open-source discovery of chemical leads for next-generation chemoprotective antimalarials” (2018).
